The source of these data is patent publication US11299641B2, “Curable liquid composition, composition-accommodating container, liquid composition discharging device, cured material, and method of manufacturing cured material” (RICOH COMPANY, LTD., priority 2018, dated 2022).

One data set deals with female mice. The data set is described as follows: skin sensitization test in accordance with the Local Lymph Node Assay (LLNA) method, SI value. It counts as in vivo. To be noted: test substance 50.0 w/v percent in acetone/olive oil 4 to 1, 25 μL per ear once a day for three days, BrdU intake. The method, then:
The SI value was measured in the manner described below according to the skin sensitization test in accordance with the Local Lymph Node Assay (LLNA) method.
α-hexylcinnamaldehyde (HCA; product of FUJIFILM Wako Pure Chemical Corporation) was used as positive control material.
A liquid mixture containing acetone (product of FUJIFILM Wako Pure Chemical Corporation) and olive oil (product of Fudimi Pharmaceutical Co., Ltd.) in a volume ratio of 4 to 1 was used as medium.
For each of the test substances, the positive control, or the medium control, female mice were acclimated for 8 days including 6-day quarantine. No abnormalities were found in all the mice during the quarantine/acclimation period.
Based on the body weights measured two days before the initiation of sensitization, the mice were categorized into 2 groups (4 mice/group) by the body weight stratified random sampling method so that the body weight of each individual was within −20 to +20 percent of the average body weight of all the individuals. Each of the tested animals was 8 to 9 weeks old at the time of the initiation of sensitization. The individuals not classified into the groups were excluded from the test.
The group compositions of the medium control group and positive control group used for the measurement of the SI value are shown in Table 1.
The test substance was weighed in a measuring flask, and the volume of the test substance was adjusted to 1 mL while adding the medium. The thus-prepared test substance solution was placed in a light-shielded airtight container (made of glass).
The preparation solution and the medium of each test substance and positive control substance were applied to both ears of each animal in an amount of 25 μL for each. A micropipettor was used for application. The tested animals were subjected to this treatment once a day for three consecutive days.
About 48 hours after the final sensitization, the BrdU preparation solution (0.5 mL) was intraperitoneally administered once to each of the tested animals.
All the animals used for the test were observed once or more times a day from the day of the initiation of sensitization to the day of the removal of the auricular lymph node (i.e., the day when the animals were transferred from the animal room). […] Measurement of Body Weights The body weight of each of the tested animals was measured on the day of the initiation of sensitization and on the day of the removal of the auricular lymph node (i.e., the day when the animals were transferred from the animal room). Also, the weight average and the standard error for each group were calculated. Removal of Auricular Lymph Node and Measurement of Weight Thereof About 24 hours after the administration of BrdU, the tested animals were allowed to undergo euthanasia, and their auricular lymph nodes were sampled. The surrounding tissue of each auricular lymph node was removed, and the auricular lymph nodes from both the auricles were collectively weighed. Also, the weight average and the standard error of the auricular lymph nodes for each group were calculated. After the weight measurement, the auricular lymph nodes of each individual were stored in a frozen state using a BIO MEDICAL FREEZER set to −20 degrees C. Measurement of BrdU Intake After returning the auricular lymph nodes to room temperature, the auricular lymph nodes were mashed with the gradual addition of physiological saline, and suspended therein. The thus-obtained suspension was filtrated and thereafter dispensed into a 96-well microplate 3 wells by 3 wells per individual. The thus-dispensed suspensions were measured for intake of BrdU according to the ELISA method. The reagents used were a commercially available kit (Cell Proliferation ELISA, BrdU colorimetric, Cat. No. 1647229, product of Roche Diagnostics K.K.). […]

The conditions of data set [1]: Safety Data Sheet; cited from earlier work.

Take `CCC(Cc1ccccc1)(C(=O)c1ccc(N2CCOCC2)cc1)N(C)C` (stereo not drawn) [Example B3, 2-(dimethylamino)-1-(4-morpholinophenyl)-2-benzyl-1-butanone]: in the data set on female mice, the “SI value in the LLNA test” value came to 10.
In the case of `C=C(C)C(=O)OCC(O)CO` (stereo not drawn) [Example A8, Glycerol monomethacrylate], in the data set with female mice, the “SI value in the LLNA test” value amounted to 1.1.
With `CC(C)(O)C(=O)c1ccc(OCCO)cc1` [Example B1, 1-[4-(2-hydroxyethoxy)-phenyl]-2-hydroxy-2-methyl-1-propane-1-one], in data set [1], the “skin sensitization, evaluation by SDS” value is reported as “none”.
For the compound “Tricyclodecanedimethanol dimethacrylate [Example A6]”, in the data set with female mice, the “SI value in the LLNA test” value came out at 1.3.
Still for that read-out and setting: with `C=C(C)C(=O)OCC(CO)OC(=O)C(=C)C` (stereo not drawn) [Example A7, Glycerol dimethacrylate] the figure was 1.2.
In the case of “Caprolactone-modified dipentaerythritol hexaacrylate [Example A2]”, in data set [1], the “skin sensitization, evaluation by SDS” value is reported as “none”.
For the compound `C=CC(=O)OCCCCCCCCCCCCCCCC(C)C` [Example A5, Isostearyl acrylate], the “SI value in the LLNA test” value in the data set with female mice was 1.4.
Same read-out and setting: as for `C=C(C)C(=O)OCCOCCOC(=O)C(=C)C` [Example A1, Diethylene glycol dimethacrylate], the figure is 1.1; as for “Polypropylene glycol diacrylate [Example A4]”, 1.5.
